# Source: the supplement of paper PMC10307832
# Legend:
# Experiment in all cases: relative viability (nuclei count vs DMSO), 5 days (fraction); higher = more cells survive
# Dasatinib + Crizotinib = compound: Cc1nc(Nc2ncc(C(=O)Nc3c(C)cccc3Cl)s2)cc(N2CCN(CCO)CC2)n1 [Dasatinib] + C[C@@H](Oc1cc(-c2cnn(C3CCNCC3)c2)cnc1N)c1c(Cl)ccc(F)c1Cl [Crizotinib] (partner 1 µM)
# Summary of the method: (§1)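 For relative viability, nuclei counts in treated wells were divided by those in vehicle wells. Lung cancer cell lines had been pin-tool dosed in 1536-well plates the day after seeding and cultured for 5 days, then fixed and stained in one step (final 0.05% Triton X-100, 1% formaldehyde, 1 ug/ml Hoechst) and imaged at 4×. Doses were one drug alone or a fixed anchor-drug dose plus five library-drug doses (not always all listed) in √10 steps, and values are duplicate-plate medians.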
# Dasatinib + Luminespib = compound: Cc1nc(Nc2ncc(C(=O)Nc3c(C)cccc3Cl)s2)cc(N2CCN(CCO)CC2)n1 [Dasatinib] + CCNC(=O)c1noc(-c2cc(C(C)C)c(O)cc2O)c1-c1ccc(CN2CCOCC2)cc1 [Luminespib] (partner 0.01 µM)
# Summary of the method: as §1
# ALW-II-49-7 + Alpelisib = compound: Cc1ccc(C(=O)Nc2cccc(C(F)(F)F)c2)cc1Nc1cncc(C(N)=O)c1 [ALW-II-49-7] + Cc1nc(NC(=O)N2CCC[C@H]2C(N)=O)sc1-c1ccnc(C(C)(C)C(F)(F)F)c1 [Alpelisib] (partner 2 µM)
# Summary of the method: as §1
# Dasatinib + Bortezomib = compound: Cc1nc(Nc2ncc(C(=O)Nc3c(C)cccc3Cl)s2)cc(N2CCN(CCO)CC2)n1 [Dasatinib] + CC(C)C[C@H](NC(=O)[C@H](Cc1ccccc1)NC(=O)c1cnccn1)B(O)O [Bortezomib] (partner 0.002 µM)
# Summary of the method: as §1
cell line,measurement,setting,value
UMC-11,relative viability,Dasatinib + Crizotinib; first compound 0.005 µM,0.537
same,relative viability,Dasatinib + Crizotinib; first compound 0.01581 µM,0.389
same,relative viability,Dasatinib + Crizotinib; first compound 0.05 µM,0.359
same,relative viability,Dasatinib + Crizotinib; first compound 0.1581 µM,0.258
same,relative viability,Dasatinib + Crizotinib; first compound 0.5 µM,0.242
same,relative viability,Dasatinib + Luminespib; first compound 0.005 µM,0.874
same,relative viability,Dasatinib + Luminespib; first compound 0.01581 µM,0.78
same,relative viability,Dasatinib + Luminespib; first compound 0.05 µM,0.607
same,relative viability,Dasatinib + Luminespib; first compound 0.1581 µM,0.316
same,relative viability,Dasatinib + Luminespib; first compound 0.5 µM,0.328
same,relative viability,ALW-II-49-7 + Alpelisib; first compound 0.08 µM,0.841
same,relative viability,ALW-II-49-7 + Alpelisib; first compound 0.253 µM,1
same,relative viability,ALW-II-49-7 + Alpelisib; first compound 2.53 µM,1.06
same,relative viability,ALW-II-49-7 + Alpelisib; first compound 8 µM,0.971
same,relative viability,Dasatinib + Bortezomib; first compound 0.005 µM,0.668
same,relative viability,Dasatinib + Bortezomib; first compound 0.01581 µM,0.688
same,relative viability,Dasatinib + Bortezomib; first compound 0.05 µM,0.806
same,relative viability,Dasatinib + Bortezomib; first compound 0.1581 µM,0.313
same,relative viability,Dasatinib + Bortezomib; first compound 0.5 µM,0.291
